Results on 23 compounds are retold here after patent US10227357B2, “Compounds and methods for kinase modulation, and indications therefor” (Plexxikon Inc., priority 2012, dated 2019).

Assay [1] concerns the target T1, c-kit mutant D816V (Homo sapiens, UniProt P10721, D816V/DEL694-753).
T1 construct: residues 551-934, kinase insertion domain residues 694-753 deleted; 6x-histidine (N); made in house; host or cells: E. coli Arctic Express (DE3) RIL (Stratagene)
The experiment in a line: c-Kit mutant D816V biochemical assay, AlphaScreen. The conditions noted are these: c-kit D816V biochemical inhibitory activity; read-out: Biochemical activity (IC50 μM) Kit D816V. Summed up: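 Purified His-tagged c-Kit D816V (E. coli-expressed) assayed in 25 mM HEPES pH 7.2 with Mg/Mn, 5% DMSO and 10 μM ATP, 30 min at room temperature, 8-point 1:3 dilutions. Phosphorylation detected by AlphaScreen with streptavidin donor and PY20 acceptor beads; IC50 from signal versus concentration.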
A general note: In Alpha technology, singlet oxygen from a donor bead excites a nearby acceptor bead.

For assay [2], the target named is T2, c-kit kinase (Homo sapiens, UniProt P10721).
T2 construct: The c-kit (or kinase domain thereof) is an active kinase in AlphaScreen; poly-Histidine tag (in-house protein only) (cleaved yes); host or cells: E. coli BL21(DE3)RIL, co-expressed with PTP1B
Description: c-Kit biochemical assay, AlphaScreen, 10 μM ATP. Conditions: c-kit biochemical inhibitory activity; read-out: Biochemical activity (IC50 μM) Kit. Summed up: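 His-tagged c-Kit expressed in E. coli with co-expressed PTP1B (dephosphorylated), tag removed; 0.1 ng per reaction with biotinylated-peptide substrate in 50 mM HEPES pH 7.2, 5 mM MgCl2, 5 mM MnCl2, 5% DMSO, 10 μM ATP, 1 h at room temperature. Phosphorylation detected by AlphaScreen (streptavidin donor, PY20 acceptor beads); IC50 from 8-point 1:3 dilution series.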

T1 sequence (P10721 with tags, fused parts or gaps DEL694-753/D816V): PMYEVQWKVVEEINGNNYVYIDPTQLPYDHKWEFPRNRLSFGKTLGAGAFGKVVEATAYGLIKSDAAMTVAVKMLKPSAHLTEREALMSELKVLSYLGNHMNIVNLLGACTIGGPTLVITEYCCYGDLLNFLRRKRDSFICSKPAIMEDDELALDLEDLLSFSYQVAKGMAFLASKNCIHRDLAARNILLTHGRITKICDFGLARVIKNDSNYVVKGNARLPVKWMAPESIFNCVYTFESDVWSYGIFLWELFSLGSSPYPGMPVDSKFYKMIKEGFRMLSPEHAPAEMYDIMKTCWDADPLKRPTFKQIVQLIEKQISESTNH
T2 sequence (P10721 26-976): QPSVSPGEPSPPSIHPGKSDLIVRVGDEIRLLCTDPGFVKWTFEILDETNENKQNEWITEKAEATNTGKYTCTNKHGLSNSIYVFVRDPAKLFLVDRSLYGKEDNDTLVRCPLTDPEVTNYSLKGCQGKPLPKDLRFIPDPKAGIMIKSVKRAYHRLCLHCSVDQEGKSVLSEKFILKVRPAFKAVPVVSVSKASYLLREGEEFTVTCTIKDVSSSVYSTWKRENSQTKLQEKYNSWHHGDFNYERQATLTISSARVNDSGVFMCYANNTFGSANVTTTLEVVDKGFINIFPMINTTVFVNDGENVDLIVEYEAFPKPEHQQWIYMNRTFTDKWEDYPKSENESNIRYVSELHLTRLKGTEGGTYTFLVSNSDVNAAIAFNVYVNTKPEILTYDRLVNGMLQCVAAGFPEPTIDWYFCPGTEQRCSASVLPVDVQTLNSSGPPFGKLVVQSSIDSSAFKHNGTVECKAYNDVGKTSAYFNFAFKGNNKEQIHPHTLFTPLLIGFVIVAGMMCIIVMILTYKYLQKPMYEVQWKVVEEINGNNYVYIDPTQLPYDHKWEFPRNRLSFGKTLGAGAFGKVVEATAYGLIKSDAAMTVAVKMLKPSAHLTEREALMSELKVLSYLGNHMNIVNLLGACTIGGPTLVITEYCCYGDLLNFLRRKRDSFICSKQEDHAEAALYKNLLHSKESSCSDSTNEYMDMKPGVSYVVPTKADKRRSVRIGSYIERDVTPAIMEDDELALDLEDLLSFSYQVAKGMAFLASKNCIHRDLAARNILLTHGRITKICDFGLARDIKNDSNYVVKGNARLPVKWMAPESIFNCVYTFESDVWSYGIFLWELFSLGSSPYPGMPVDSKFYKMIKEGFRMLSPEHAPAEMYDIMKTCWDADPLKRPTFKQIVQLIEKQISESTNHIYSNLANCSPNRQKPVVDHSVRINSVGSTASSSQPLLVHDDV

One may read the IC50 as the concentration that gives 50% inhibition. Consider `CCCS(=O)(=O)Nc1cccc(-c2ncnc3[nH]c(-c4ccc(F)cc4)cc23)c1` [P-0434, N-[3-[6-(4-fluorophenyl)-7H-pyrrolo[2,3-d]pyrimidin-4-yl]phenyl]propane-1-sulfonamide], for which the figures for the IC50 in assay [1] and in assay [2] were 10 to 200 µM and 1 to 10 µM, respectively.
`Cc1n[nH]c2ncnc(-c3ccc(NS(=O)(=O)c4ccc(C(F)(F)F)cc4)cc3)c12` [P-0438, N-[4-(3-methyl-1H-pyrazolo[3,4-d]pyrimidin-4-yl)phenyl]-4-(trifluoromethyl)benzenesulfonamide]: the IC50 in assay [1] was in the range of 0.0001 to 1 µM; in assay [2] it was 1 to 10 µM.
On to `Cc1n[nH]c2ncnc(-c3ccc(NS(=O)(=O)c4ccc(F)cc4)cc3)c12` [P-0439, 4-fluoro-N-[4-(3-methyl-1H-pyrazolo[3,4-d]pyrimidin-4-yl)phenyl]benzenesulfonamide], for which the IC50 was 0.0001 to 1 µM in assay [1] and 1 to 10 µM in assay [2].
As to `Cc1n[nH]c2ncnc(-c3ccc(NS(=O)(=O)c4cccc(F)c4)cc3)c12` [P-0440, 3-fluoro-N-[4-(3-methyl-1H-pyrazolo[3,4-d]pyrimidin-4-yl)phenyl]benzenesulfonamide], the IC50 in assay [1] lay within 0.0001 to 1 µM; in assay [2], 1 to 10 µM.
On to `Cc1n[nH]c2ncnc(-c3ccc(NS(=O)(=O)c4ccc(C(F)(F)F)nc4)cc3)c12` [P-0441, N-[4-(3-methyl-1H-pyrazolo[3,4-d]pyrimidin-4-yl)phenyl]-6-(trifluoromethyl)pyridine-3-sulfonamide], for which the IC50 in assay [1] was 0.0001 to 1 µM; in assay [2], 10 to 200 µM.
The corresponding values for `CCc1ccc(S(=O)(=O)Nc2ccc(-c3ncnc4[nH]nc(C)c34)cc2)cc1` [P-0442, 4-ethyl-N-[4-(3-methyl-1H-pyrazolo[3,4-d]pyrimidin-4-yl)phenyl]benzenesulfonamide] are 0.0001 to 1 µM and 1 to 10 µM.
As for `Cc1n[nH]c2ncnc(-c3ccc(NS(=O)(=O)c4cccc(Cl)c4)cc3)c12` [P-0443, 3-chloro-N-[4-(3-methyl-1H-pyrazolo[3,4-d]pyrimidin-4-yl)phenyl]benzenesulfonamide], the IC50 in assay [1] lay in the range of 0.0001 to 1 µM; in assay [2] it was 1 to 10 µM.
For the compound `COc1ccc(S(=O)(=O)Nc2ccc(-c3ncnc4[nH]nc(C)c34)cc2)cc1` [P-0444, 4-methoxy-N-[4-(3-methyl-1H-pyrazolo[3,4-d]pyrimidin-4-yl)phenyl]benzenesulfonamide], the results for the IC50 in assay [1] and in assay [2] were 0.0001 to 1 µM and 1 to 10 µM, respectively.
In the case of `Cc1n[nH]c2ncnc(-c3ccc(NS(=O)(=O)c4ccc(Cl)cc4)cc3)c12` [P-0445, 4-chloro-N-[4-(3-methyl-1H-pyrazolo[3,4-d]pyrimidin-4-yl)phenyl]benzenesulfonamide], the IC50 lay within 0.0001 to 1 µM in assay [1] and 1 to 10 µM in assay [2].
With `Cc1ccc(S(=O)(=O)Nc2ccc(-c3ncnc4[nH]nc(C)c34)cc2)cc1` [P-0447, 4-methyl-N-[4-(3-methyl-1H-pyrazolo[3,4-d]pyrimidin-4-yl)phenyl]benzenesulfonamide], the 50% inhibitory concentration (IC50) in assay [1] fell in the range of 0.0001 to 1 µM; in assay [2], 1 to 10 µM.
As to `Cc1ccc(S(=O)(=O)Nc2ccc(-c3ncnc4[nH]cc(C)c34)cc2)cc1` [P-0448, 4-methyl-N-[4-(5-methyl-7H-pyrrolo[2,3-d]pyrimidin-4-yl)phenyl]benzenesulfonamide], the IC50 in assay [1] lay in the range of 0.0001 to 1 µM; in assay [2], 1 to 10 µM.
Consider `Cc1ccc(S(=O)(=O)Nc2ccc(-c3ncnc4[nH]c(C)c(C)c34)cc2)cc1` [P-0449, N-[4-(5,6-dimethyl-7H-pyrrolo[2,3-d]pyrimidin-4-yl)phenyl]-4-methyl-benzenesulfonamide], for which the IC50 in assay [1] and in assay [2] was 1 to 10 µM each time.
For `Cc1ccc(S(=O)(=O)Nc2ccc(-c3ncnc4[nH]c(C)nc34)cc2)cc1` [P-0450, 4-methyl-N-[4-(8-methyl-9H-purin-6-yl)phenyl]benzenesulfonamide], the IC50 is 1 to 10 µM in assay [1] and 10 to 200 µM in assay [2].
On the same counts, the results for `Cc1ccc(S(=O)(=O)NC2CCN(c3ncnc4[nH]c(-c5cnn(C)c5)cc34)CC2)cc1` [P-0451, 4-methyl-N-[1-[6-(1-methylpyrazol-4-yl)-7H-pyrrolo[2,3-d]pyrimidin-4-yl]-4-piperidyl]benzenesulfonamide] are 0.0001 to 1 µM and 1 to 10 µM.
In the case of `Cn1cc(-c2cc3c(N4CCC(NS(=O)(=O)c5ccc6c(c5)CCC6)CC4)ncnc3[nH]2)cn1` [P-0452, N-[1-[6-(1-methylpyrazol-4-yl)-7H-pyrrolo[2,3-d]pyrimidin-4-yl]-4-piperidyl]indane-5-sulfonamide], the values for the IC50 in assay [1] and in assay [2] were 0.0001 to 1 µM and 1 to 10 µM, respectively.
Turning to `Cc1ccc(S(=O)(=O)NC2CCN(c3ncnc4[nH]c(-c5cnn(C)c5)cc34)CC2)s1` [P-0454, 5-methyl-N-[1-[6-(1-methylpyrazol-4-yl)-7H-pyrrolo[2,3-d]pyrimidin-4-yl]-4-piperidyl]thiophene-2-sulfonamide], the IC50 lay within 0.0001 to 1 µM in assay [1] and 10 to 200 µM in assay [2].
On the same counts, the results for `Cc1ccc2sc(S(=O)(=O)NC3CCN(c4ncnc5[nH]c(-c6cnn(C)c6)cc45)CC3)cc2c1` [P-0455, 5-methyl-N-[1-[6-(1-methylpyrazol-4-yl)-7H-pyrrolo[2,3-d]pyrimidin-4-yl]-4-piperidyl]benzothiophene-2-sulfonamide] are 0.0001 to 1 µM and 1 to 10 µM.
Regarding `Cn1cc(-c2cc3c(N4CCC(NS(=O)(=O)c5ccc6c(c5)CCO6)CC4)ncnc3[nH]2)cn1` [P-0457, N-[1-[6-(1-methylpyrazol-4-yl)-7H-pyrrolo[2,3-d]pyrimidin-4-yl]-4-piperidyl]-2,3-dihydrobenzofuran-5-sulfonamide], the IC50 in assay [1] lay in the range of 0.0001 to 1 µM; in assay [2], 10 to 200 µM.
On the same counts, the results for `Cn1cc(-c2cc3c(N4CCC(NS(=O)(=O)c5ccc(Cl)s5)CC4)ncnc3[nH]2)cn1` [P-0458, 5-chloro-N-[1-[6-(1-methylpyrazol-4-yl)-7H-pyrrolo[2,3-d]pyrimidin-4-yl]-4-piperidyl]thiophene-2-sulfonamide] are 0.0001 to 1 µM and 10 to 200 µM.
On the same counts, the results for `COc1cc(-c2cc3c(N4CCC(NS(=O)(=O)c5ccc(OC(F)(F)F)cc5)CC4)ncnc3[nH]2)ccn1` [P-0460, N-[1-[6-(2-methoxy-4-pyridyl)-7H-pyrrolo[2,3-d]pyrimidin-4-yl]-4-piperidyl]-4-(trifluoromethoxy)benzenesulfonamide] are 10 to 200 µM and 10 to 200 µM.
On the same counts, the results for `Cn1cc(-c2cc3c(N4CCC(NS(=O)(=O)c5cc(Cl)c(Cl)s5)CC4)ncnc3[nH]2)cn1` [P-0461, 4,5-dichloro-N-[1-[6-(1-methylpyrazol-4-yl)-7H-pyrrolo[2,3-d]pyrimidin-4-yl]-4-piperidyl]thiophene-2-sulfonamide] are 0.0001 to 1 µM and 1 to 10 µM.
Turning to `Cn1cc(-c2cc3c(N4CCC(NS(=O)(=O)c5cc(Cl)cs5)CC4)ncnc3[nH]2)cn1` [P-0462, 4-chloro-N-[1-[6-(1-methylpyrazol-4-yl)-7H-pyrrolo[2,3-d]pyrimidin-4-yl]-4-piperidyl]thiophene-2-sulfonamide], the figures for the IC50 in assay [1] and in assay [2] were 0.0001 to 1 µM and 1 to 10 µM, respectively.
As to `COc1ncc(-c2cc3c(N4CCC(NS(=O)(=O)c5ccc(OC(F)(F)F)cc5)CC4)ncnc3[nH]2)cn1` [P-0465, N-[1-[6-(2-methoxypyrimidin-5-yl)-7H-pyrrolo[2,3-d]pyrimidin-4-yl]-4-piperidyl]-4-(trifluoromethoxy)benzenesulfonamide], the IC50 in assay [1] and in assay [2] was 10 to 200 µM in each case.
